Source: patent US12077503B2, “Substituted cyclic amides and their use as herbicides” (FMC CORPORATION, priority 2015, dated 2024)
Where two headings read alike, the source gives them in different places.

Columns and labels:
Test in all cases: Test A preemergence
Assay type in all cases: in vivo
[1] = system: barnyardgrass (Echinochloa crus-galli); details: Echinochloa crus-galli, pre-emergence, 240 h; for pest or weed control at 500 g/ha: 500 g ai/ha, preemergence; for pest or weed control at 125 g/ha: Preemergence, 125 g ai/ha
In short: (§1)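 In a loam soil and sand blend, planted seeds got a preemergence directed soil spray, and young plants at the one- to two-leaf stage, 2–10 cm high, got a postemergence application; ~10 d greenhouse hold; injury rated visually, 0 = none, 100 = complete control.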

[2] = system: ryegrass, Italian (Italian ryegrass, Lolium multiflorum); details: Lolium multiflorum, pre-emergence, 240 h, 0 to 100 scale (0 no effect, 100 complete control), read-out: Plant response rating, Ryegrass, Italian; for pest or weed control at 125 g/ha: Preemergence, 125 g ai/ha; for pest or weed control at 500 g/ha: 500 g ai/ha, preemergence
In short: as §1

[3] = system: ragweed (common ragweed, Ambrosia elatior); details: Ambrosia artemisiifolia, pre-emergence, 240 h; for pest or weed control at 500 g/ha: 500 g ai/ha, preemergence; for pest or weed control at 125 g/ha: Preemergence, 125 g ai/ha
In short: as §1

[4] = system: pigweed (Amaranthus retroflexus); details: Amaranthus retroflexus, pre-emergence, 240 h; for pest or weed control at 500 g/ha: 500 g ai/ha, preemergence; for pest or weed control at 125 g/ha: Preemergence, 125 g ai/ha
[5] = system: giant foxtail (Setaria faberii); details: Setaria faberi, pre-emergence, 240 h; for pest or weed control at 500 g/ha: 500 g ai/ha, preemergence; for pest or weed control at 125 g/ha: Preemergence, 125 g ai/ha
In short: as §1

Kochia (Kochia scoparia) = details: Bassia scoparia, pre-emergence, 240 h; for pest or weed control at 500 g/ha: 500 g ai/ha, preemergence; for pest or weed control at 125 g/ha: Preemergence, 125 g ai/ha
In short: as §1

[6] = 0 to 100 scale where 0 is no effect and 100 is complete control, read-out: Barnyardgrass plant response rating
[7] = 0 to 100 scale (0 no effect, 100 complete control), read-out: Plant response rating, Barnyardgrass
[8] = 0 to 100 scale where 0 is no effect and 100 is complete control, read-out: Ragweed plant response rating
[9] = 0 to 100 scale (0 no effect, 100 complete control), read-out: Plant response rating, Ragweed
[10] = 0 to 100 scale where 0 is no effect and 100 is complete control, read-out: Pigweed plant response rating
[11] = 0 to 100 scale (0 no effect, 100 complete control), read-out: Plant response rating, Pigweed
[12] = 0 to 100 scale where 0 is no effect and 100 is complete control, read-out: Foxtail, Giant plant response rating
[13] = 0 to 100 scale (0 no effect, 100 complete control), read-out: Plant response rating, Foxtail, Giant
[14] = 0 to 100 scale where 0 is no effect and 100 is complete control, read-out: Kochia plant response rating
[15] = 0 to 100 scale (0 no effect, 100 complete control), read-out: Plant response rating, Kochia

Row | Compound | pest or weed control at 500 g/ha [1, 6] | pest or weed control at 125 g/ha [1, 7] | pest or weed control at 125 g/ha [2] | pest or weed control at 500 g/ha [3, 8] | pest or weed control at 125 g/ha [3, 9] | pest or weed control at 500 g/ha [4, 10] | pest or weed control at 125 g/ha [4, 11] | pest or weed control at 500 g/ha [5, 12] | pest or weed control at 125 g/ha [5, 13] | pest or weed control at 500 g/ha (Kochia (Kochia scoparia); [14]) | pest or weed control at 125 g/ha (Kochia (Kochia scoparia); [15]) | pest or weed control at 500 g/ha [1, 7] | pest or weed control at 500 g/ha [2] | pest or weed control at 500 g/ha [3, 9] | pest or weed control at 500 g/ha [4, 11] | pest or weed control at 500 g/ha [5, 13] | pest or weed control at 500 g/ha (Kochia (Kochia scoparia); [15])
1 | CN1C[C@H](c2cccc(C(C)(F)F)c2)[C@@H](C(=O)Nc2ccccc2S(C)(=O)=O)C1=O [Compound 1318] | 90% | 90% | 40% | 90% | 0% | 80% | 70% | 90% | 90% | 80% | 70% |  |  |  |  |  | 
2 | CS(=O)(=O)c1ccccc1NC(=O)[C@H]1C(=O)NC[C@@H]1c1ccc2c(c1)CCO2 [Compound 1320] | 60% | 0% | 0% | 0% | 0% | 0% | 0% | 80% | 0% | 60% | 0% |  |  |  |  |  | 
3 | CN1C[C@H](c2ccc3c(c2)CCO3)[C@@H](C(=O)Nc2ccc(F)c(F)c2F)C1=O [Compound 1323] | 90% | 90% | 20% | 70% | 0% | 40% | 0% | 90% | 90% | 90% | 80% |  |  |  |  |  | 
4 | Cc1c(F)ccc([C@H]2CNC(=O)[C@@H]2C(=O)Nc2cccc(F)c2F)c1F [Compound 1327] |  | 90% | 20% |  | 0% |  | 0% |  | 70% |  | 100% | 90% | 20% | 0% | 30% | 90% | 90%
5 | Cc1c(F)ccc([C@H]2CNC(=O)[C@@H]2C(=O)Nc2ccc(F)cc2F)c1F [Compound 1328] |  | 70% | 0% |  | 0% |  | 0% |  | 50% |  | 30% | 90% | 30% | 0% | 0% | 90% | 50%
6 | COc1cc(OC)cc([C@H]2CN(C)C(=O)[C@@H]2C(=O)Nc2cccc(F)c2F)c1 [Compound 1370] |  | 90% | 80% |  | 40% |  | 0% |  | 90% |  |  | 90% | 90% | 80% | 20% | 90% | 80%
7 | CN1C[C@H](c2ccc(OC(F)F)cc2)[C@@H](C(=O)Nc2ccccc2F)C1=O [Compound 1371] |  | 90% | 0% |  | 70% |  | 70% |  | 90% |  | 80% | 100% | 50% | 80% | 90% | 90% | 90%
8 | Cc1ccc([C@H]2CN(C)C(=O)[C@@H]2C(=O)Nc2ccccc2F)cc1Cl [Compound 1384] |  | 90% | 30% |  | 0% |  | 30% |  | 90% |  | 30% | 90% | 70% | 0% | 30% | 90% | 70%
9 | CC(C)c1cccc([C@H]2CN(C)C(=O)[C@@H]2C(=O)Nc2cccc(F)c2F)c1 [Compound 1388] |  | 100% | 90% |  | 0% |  | 30% |  | 100% |  | 80% | 100% | 100% | 70% | 70% | 100% | 90%
10 | CN1C[C@H](c2cccc(C(F)(F)F)c2)[C@@H](C(=O)Nc2ccc(F)c(F)c2F)C1=O [Compound 1389] |  | 100% | 80% |  | 0% |  | 70% |  | 100% |  | 70% | 100% | 90% | 30% | 80% | 100% | 90%
